The values that follow are results of earlier work, collected in US7160580B2, “Organic acids incorporated edible antimicrobial films” (The Board of Trustees for the University of Arkansas, priority 2002, dated 2007).

Each structure is given as a SMILES string. “And” between values parts separate entries of the source, which are not always exact repeats. Equal entries are not always repeated.

The test system of one series is E. coli 0157:H7. To be noted: lean beef tissue treated with 1.7% lactic acid, stored at 5° C. for 7 days.
Series [1] concerns Listeria monocytogens. The following applies: lean beef tissue treated with 1.7% lactic acid, stored at 5° C. for 7 days.
Series [2] has as its system Listeria monocytogens. To be noted: 2% acid rinsed catfish fillets stored at 4° C., up to 5 days.
The next series relates to Salmonella montevideo. To be noted: citric acid 0.2 and 0.4% in cellulose based edible film; surface or core tissue of tomatoes; assignment of the two values not stated.

In the case of `CC(O)C(=O)O` (centres unmarked) [lactic acid], in the series on E. coli 0157:H7, the “log reduction E. coli 0157:H7” value is on record as 0.91 log. The “log reduction Listeria monocytogens” value in the series with Listeria monocytogens [1] is listed as 2.03 log. Also, in the series with Listeria monocytogens [2], the “log reduction in Listeria monocytogens counts” value is recorded as “less than one log reduction”.

Regarding `O=C(O)CC(O)(CC(=O)O)C(=O)O` [citric acid], in the series on Salmonella montevideo, the “log reductions of Salmonella montevideo” value was 2.18 log and 1.92 log. In the series on Listeria monocytogens [2], the “log reduction in Listeria monocytogens counts” value is on record as “less than one log reduction”.

`O=C(O)C(O)C(O)C(=O)O` (centres unmarked) [tartaric acid]: the “log reduction in Listeria monocytogens counts” value in the series on Listeria monocytogens [2] is on record as “less than one log reduction”.

Regarding `Cl` [hydrochloric acid], the “log reduction in Listeria monocytogens counts” value in the series on Listeria monocytogens [2] is reported as “less than one log reduction”.

`O=C(O)CC(O)C(=O)O` (centres unmarked) [malic acid]: the “log reduction in Listeria monocytogens counts” value in the series on Listeria monocytogens [2] is “less than one log reduction”.
